Results taken from paper PMC11855478, “Bicyclic N,S-Acetals Containing Fused Cysteine-Amide System as New Heterocyclic Class Targeting Human Farnesyltransferase (FTase-h)” (International Journal of Molecular Sciences, 2025).

What was measured:
SK-MEL-5 (Melanoma) = test: NCI one dose, SK-MEL-5; type: cell-based, human; conditions: SK-MEL-5, 1.00E-5 Molar one dose
Protocol: (§1) 3.4. Cell Proliferation Assay
(§2) Selected compounds were tested on a panel of 60 human cancer cell lines at the National Cancer Institute (NCI), Germantown, MD, USA. The cytotoxicity studies were conducted using a 48 h exposure protocol using the sulfo-rhodamine B assay.

CAKI-1 (Renal Cancer) = test: NCI one dose, CAKI-1; type: cell-based, human; conditions: CAKI-1, 1.00E-5 Molar one dose
Protocol: as §1, §2

SW-620 (Colon Cancer) = test: NCI one dose, SW-620; type: cell-based, human; conditions: SW-620, 1.00E-5 Molar one dose
Protocol: as §1, §2

SF-295 (CNS Cancer) = test: NCI one dose, SF-295; type: cell-based, human; conditions: SF-295, 1.00E-5 Molar one dose
Protocol: as §1, §2

SK-OV-3 (Ovarian Cancer) = test: NCI one dose, SK-OV-3; type: cell-based, human; conditions: SK-OV-3, 1.00E-5 Molar one dose
Protocol: as §1, §2

RXF 393 (Renal Cancer) = test: NCI one dose, RXF 393; type: cell-based, human; conditions: RXF 393, 1.00E-5 Molar one dose
Protocol: as §1, §2

OVCAR-4 (Ovarian Cancer) = test: NCI one dose, OVCAR-4; type: cell-based, human; conditions: OVCAR-4, 1.00E-5 Molar one dose
Protocol: as §1, §2

CCRF-CEM (Leukemia) = test: NCI one dose, CCRF-CEM; type: cell-based, human; conditions: 1.00E-5 Molar one dose
Protocol: as §1, §2

SF-539 (CNS Cancer) = test: NCI one dose, SF-539; type: cell-based, human; conditions: SF-539, 1.00E-5 Molar one dose
Protocol: as §1, §2

SF-268 (CNS Cancer) = test: NCI one dose, SF-268; type: cell-based, human; conditions: SF-268, 1.00E-5 Molar one dose
Protocol: as §1, §2

A498 (Renal Cancer) = test: NCI one dose, A498; type: cell-based, human; conditions: A498, 1.00E-5 Molar one dose
Protocol: as §1, §2

U251 (CNS Cancer) = test: NCI one dose, U251; type: cell-based, human; conditions: U251, 1.00E-5 Molar one dose
Protocol: as §1, §2

SK-MEL-2 (Melanoma) = test: NCI one dose, SK-MEL-2; type: cell-based, human; conditions: SK-MEL-2, 1.00E-5 Molar one dose
Protocol: as §1, §2

[1] = system: A549/ATCC (Non-Small Cell Lung Cancer); test: NCI one dose, A549/ATCC; type: cell-based, human; conditions: 1.00E-5 Molar one dose
Protocol: as §1, §2

HCT-116 (Colon Cancer) = test: NCI one dose, HCT-116; type: cell-based, human; conditions: HCT-116, 1.00E-5 Molar one dose
Protocol: as §1, §2

HCT-15 (Colon Cancer) = test: NCI one dose, HCT-15; type: cell-based, human; conditions: HCT-15, 1.00E-5 Molar one dose
Protocol: as §1, §2

SK-MEL-28 (Melanoma) = test: NCI one dose, SK-MEL-28; type: cell-based, human; conditions: SK-MEL-28, 1.00E-5 Molar one dose
Protocol: as §1, §2

[2] = system: NCI-H23 (Non-Small Cell Lung Cancer); test: NCI one dose, NCI-H23; type: cell-based, human; conditions: NCI-H23, 1.00E-5 Molar one dose
Protocol: as §1, §2

SNB-75 (CNS Cancer) = test: NCI one dose, SNB-75; type: cell-based, human; conditions: SNB-75, 1.00E-5 Molar one dose
Protocol: as §1, §2

BT-549 (Breast Cancer) = test: NCI one dose, BT-549; type: cell-based, human; conditions: BT-549, 1.00E-5 Molar one dose
Protocol: as §1, §2

MOLT-4 (Leukemia) = test: NCI one dose, MOLT-4; type: cell-based, human; conditions: MOLT-4, 1.00E-5 Molar one dose
Protocol: as §1, §2

[3] = system: panel of 60 human cancer cell lines; test: NCI 60 cell panel one dose screen (whole panel); type: cell-based; set-up: Delta (One Dose Mean Graph): unit not given here; conditions: 1.00E-5 Molar one dose; for Range (One Dose Mean Graph): in % (unit assumed); for Mean Growth Percent: mean over tested cell lines
Protocol: as §1
Selected compounds were tested on a panel of 60 human cancer cell lines at the National Cancer Institute (NCI), Germantown, MD, USA. The cytotoxicity studies were conducted using a 48 h exposure protocol using the sulfo-rhodamine B assay. […]
X. NCI One Dose Mean Graph of sulfides 4a(A -J) and 4b(A-J)
The entire series of sulfides regrouping twenty synthesized FTI-candidates (4aA-J, 4bA-J) were selected by the National Cancer Institute (NCI) for evaluation of their antiproliferative activity against 60 cancer cell lines (see the followings twenty pages for full evaluation reports). […]
inhibiting 36% of the NCI-H522 cells. Such difference between IC50 on human FTase in the nanomolar range and IC50 on cancer cell growth in the micromolar range is characteristic to potent FTIs and was reported previously on different series of compounds (see for example ref erence in the references part […]
Of interest, none of the tested compounds at a high single dose (10 µM) in the full NCI 60 cell panel has shown a cytotoxic profile. […]
inhibitory potential on FTase raise good hope for further investigation of these series as agents fighting

[4] = system: NCI/ADR-RES (Ovarian Cancer); test: NCI one dose, NCI/ADR-RES; type: cell-based, human; conditions: 1.00E-5 Molar one dose
Protocol: as §1, §2

[5] = system: NCI-H322M (Non-Small Cell Lung Cancer); test: NCI one dose, NCI-H322M; type: cell-based, human; conditions: 1.00E-5 Molar one dose
Protocol: as §1, §2

K-562 leukaemia cells = test: NCI one dose, K-562; type: cell-based, human; conditions: K-562, 1.00E-5 Molar one dose
Protocol: as §1, §2

OVCAR-3 (Ovarian Cancer) = test: NCI one dose, OVCAR-3; type: cell-based, human; conditions: OVCAR-3, 1.00E-5 Molar one dose
Protocol: as §1, §2

HT29 (Colon Cancer) = test: NCI one dose, HT29; type: cell-based, human; conditions: HT29, 1.00E-5 Molar one dose
Protocol: as §1, §2

OVCAR-5 (Ovarian Cancer) = test: NCI one dose, OVCAR-5; type: cell-based, human; conditions: OVCAR-5, 1.00E-5 Molar one dose
Protocol: as §1, §2

DU-145 (Prostate Cancer) = test: NCI one dose, DU-145; type: cell-based, human; conditions: DU-145, 1.00E-5 Molar one dose
Protocol: as §1, §2

HCC-2998 (Colon Cancer) = test: NCI one dose, HCC-2998; type: cell-based, human; conditions: HCC-2998, 1.00E-5 Molar one dose
Protocol: as §1, §2

SMILES | Growth Percent (SK-MEL-5 (Melanoma)) [%] | Growth Percent (CAKI-1 (Renal Cancer)) [%] | Growth Percent (SW-620 (Colon Cancer)) [%] | Growth Percent (SF-295 (CNS Cancer)) [%] | Growth Percent (SK-OV-3 (Ovarian Cancer)) [%] | Growth Percent (RXF 393 (Renal Cancer)) [%] | Growth Percent (OVCAR-4 (Ovarian Cancer)) [%] | Growth Percent (CCRF-CEM (Leukemia)) [%] | Growth Percent (SF-539 (CNS Cancer)) [%] | Growth Percent (SF-268 (CNS Cancer)) [%] | Growth Percent (A498 (Renal Cancer)) [%] | Growth Percent (U251 (CNS Cancer)) [%] | Growth Percent (SK-MEL-2 (Melanoma)) [%] | Growth Percent [1] [%] | Growth Percent (HCT-116 (Colon Cancer)) [%] | Growth Percent (HCT-15 (Colon Cancer)) [%] | Growth Percent (SK-MEL-28 (Melanoma)) [%] | Growth Percent [2] [%] | Growth Percent (SNB-75 (CNS Cancer)) [%] | Growth Percent (BT-549 (Breast Cancer)) [%] | other results
COc1ccc(CNC(=O)[C@@H]2CS[C@H]3c4ccccc4C(=O)N23)cc1 [4aF] | 110.95 | 97.50 | 105.03 | 95.57 | 99.01 | 117.51 | 110.64 | 97.27 | 107.51 | 101.17 | 105.77 | 98.53 | 118.58 | 95.62 | 101.21 | 100.29 | 102.14 | 108.19 | 114.38 | 103.55 | Growth Percent (MOLT-4 (Leukemia)): 97.28%; Delta (One Dose Mean Graph) [3]: 26.11; Range (One Dose Mean Graph) [3]: 46.82; Mean Growth Percent [3]: 101.29%; Growth Percent [4]: 103.64%; Growth Percent [5]: 88.19%; Growth Percent (K-562 leukaemia cells): 99.90%; Growth Percent (OVCAR-3 (Ovarian Cancer)): 106.29%; Growth Percent (HT29 (Colon Cancer)): 103.88%; Growth Percent (OVCAR-5 (Ovarian Cancer)): 95.48%; Growth Percent (DU-145 (Prostate Cancer)): 116.46%; Growth Percent (HCC-2998 (Colon Cancer)): 114.93%
O=C(NCc1ccccc1C(F)(F)F)[C@@H]1CS[C@H]2c3ccccc3C(=O)N12 [4aC] | 107.31 | 97.48 | 104.34 | 94.85 | 85.91 | 115.46 | 105.74 | 93.25 | 95.88 | 93.86 | 98.14 | 91.06 | 99.87 | 90.42 | 87.63 | 103.73 | 99.12 | 105.15 | 85.21 | 96.07 | Growth Percent (MOLT-4 (Leukemia)): 85.46%; Delta (One Dose Mean Graph) [3]: 21.44; Range (One Dose Mean Graph) [3]: 40.62; Mean Growth Percent [3]: 96.28%; Growth Percent [4]: 99.79%; Growth Percent [5]: 103.27%; Growth Percent (K-562 leukaemia cells): 94.12%; Growth Percent (OVCAR-3 (Ovarian Cancer)): 106.48%; Growth Percent (HT29 (Colon Cancer)): 91.65%; Growth Percent (OVCAR-5 (Ovarian Cancer)): 83.18%; Growth Percent (DU-145 (Prostate Cancer)): 107.34%; Growth Percent (HCC-2998 (Colon Cancer)): 111.38%
O=C(NCc1ccccc1)[C@@H]1CS[C@H]2c3ccccc3C(=O)N12 [4aA] | 114.63 | 94.90 | 102.46 | 99.96 | 102.04 | 114.31 | 111.39 | 96.52 | 102.43 | 90.56 | 102.15 | 97.80 | 105.03 | 97.86 | 87.66 | 103.68 | 110.09 | 100.85 | 84.04 | 93.57 | Growth Percent (MOLT-4 (Leukemia)): 95.69%; Delta (One Dose Mean Graph) [3]: 20.43; Range (One Dose Mean Graph) [3]: 35.31; Mean Growth Percent [3]: 99.75%; Growth Percent [4]: 99.86%; Growth Percent [5]: 102.34%; Growth Percent (K-562 leukaemia cells): 101.44%; Growth Percent (OVCAR-3 (Ovarian Cancer)): 112.79%; Growth Percent (HT29 (Colon Cancer)): 99.44%; Growth Percent (OVCAR-5 (Ovarian Cancer)): 91.72%; Growth Percent (DU-145 (Prostate Cancer)): 111.90%; Growth Percent (HCC-2998 (Colon Cancer)): 101.83%
COc1cc(CNC(=O)[C@@H]2CS[C@H]3c4ccccc4C(=O)N23)cc(OC)c1OC [4aJ] | 107.99 | 95.05 | 104.14 | 107.19 | 93.11 | 110.79 | 104.76 | 96.01 | 89.92 | 104.63 | 100.74 | 104.21 | 95.25 | 98.15 | 92.64 | 107.89 | 109.82 | 100.31 | 86.61 | 92.77 | Growth Percent (MOLT-4 (Leukemia)): 90.32%; Delta (One Dose Mean Graph) [3]: 15.66; Range (One Dose Mean Graph) [3]: 30.62; Mean Growth Percent [3]: 98.66%; Growth Percent [4]: 95.00%; Growth Percent [5]: 107.00%; Growth Percent (K-562 leukaemia cells): 90.55%; Growth Percent (OVCAR-3 (Ovarian Cancer)): 105.82%; Growth Percent (HT29 (Colon Cancer)): 103.83%; Growth Percent (OVCAR-5 (Ovarian Cancer)): 94.62%; Growth Percent (DU-145 (Prostate Cancer)): 113.37%; Growth Percent (HCC-2998 (Colon Cancer)): 113.62%
O=C(NCc1ccc(Cl)cc1Cl)[C@@H]1CS[C@H]2c3ccccc3C(=O)N12 [4aH] | 109.91 | 101.46 | 105.59 | 95.60 | 103.37 | 105.25 | 106.54 | 92.66 | 106.56 | 98.11 | 101.60 | 95.21 | 99.61 | 97.39 | 83.47 | 102.53 | 103.04 | 99.59 | 89.63 | 97.76 | Growth Percent (MOLT-4 (Leukemia)): 79.54%; Delta (One Dose Mean Graph) [3]: 24.18; Range (One Dose Mean Graph) [3]: 40.81; Mean Growth Percent [3]: 97.15%; Growth Percent [4]: 92.00%; Growth Percent [5]: 91.63%; Growth Percent (K-562 leukaemia cells): 91.56%; Growth Percent (OVCAR-3 (Ovarian Cancer)): 107.79%; Growth Percent (HT29 (Colon Cancer)): 96.30%; Growth Percent (OVCAR-5 (Ovarian Cancer)): 104.58%; Growth Percent (DU-145 (Prostate Cancer)): 109.93%; Growth Percent (HCC-2998 (Colon Cancer)): 102.84%
